{"source": "paper PMC2784635", "about": "(Bioorganic & medicinal chemistry, 2008)", "key": {"[1]": {"target": "cytochrome bc1 complex (beef heart mitochondria, NADH oxidase) (Bos taurus, UniProt P00157+P13272)", "assay": "beef heart mitochondrial NADH oxidase assay", "type": "biochemical", "conditions": "for IC50, NADH oxidase: beef heart mitochondria, Z-enamide analogues, Table 5"}, "[2]": {"system": "plant pathogens", "assay": "fungicidal activity on plants", "type": "in vivo"}, "[3]": {"system": "electron transport chain at complex III", "conditions": "beef heart mitochondrial respiration assay; cited from earlier work"}, "[4]": {"assay": "simulated sunlight photostability test, thin films on glass slides", "type": "physicochemical", "conditions": "for time for 50% of parent compound being lost / T50 glass slides: thin films on glass slides"}, "[5]": {"system": "several fungi", "conditions": "cited from earlier work"}, "[6]": {"system": "Plasmopara viticola (vine downy mildew)", "assay": "glasshouse foliar spray test, vine downy mildew", "type": "in vivo"}}}
{"smiles": "C/C=C(C)/C=C/C=C/[C@H](OC)[C@@H](C)[C@@H](OC)[C@@H](C)CCc1oc2c(O)c(OC)cc(OC)c2c(=O)c1C", "note": "[Compound 2, stigmatellin, reference compound]", "values": [{"measurement": "activity in the NADH oxidase / beef heart mitochondrial respiration assay", "setting": "[1]", "value": "quite active"}, {"measurement": "fungicidal activity on plants", "setting": "[2]", "value": "very little fungicidal activity"}]}
{"smiles": "COC(=O)CNC(=O)/C=C\\C/C=C\\NC(=O)/C=C(C)/C=C/[C@H](C)[C@H](OC)[C@H](C)[C@H](/C=C/c1ccccc1)OC", "note": "[Compound 8, crocacin A]", "values": [{"measurement": "inhibition of the electron transport chain at complex III", "setting": "[3]", "value": "inhibited the electron transport chain at complex III"}, {"measurement": "time for 50% of parent compound being lost", "setting": "[4]", "value": 7, "unit": "min"}, {"measurement": "inhibition of growth of fungi in vitro", "setting": "[5]", "value": "inhibited the growth of several fungi in vitro"}]}
{"smiles": "CO[C@H]([C@H](C)[C@H](/C=C/c1ccccc1)OC)[C@@H](C)/C=C/C(C)=C/C(=O)N/C=C\\C/C=C\\C(=O)NCC(=O)O", "note": "[Compound 9, crocacin B]", "values": [{"measurement": "inhibition of the electron transport chain at complex III", "setting": "[3]", "value": "not to be active"}]}
{"smiles": "CO[C@H]([C@H](C)[C@H](/C=C/c1ccccc1)OC)[C@@H](C)/C=C/C(C)=C/C(N)=O", "note": "[Compound 10, crocacin C]", "values": [{"measurement": "inhibition of the electron transport chain at complex III", "setting": "[3]", "value": "not to be active"}]}
{"smiles": "COC(=O)CNC(=O)CCC/C=C\\NC(=O)/C=C(C)/C=C/[C@H](C)[C@H](OC)[C@H](C)[C@H](/C=C/c1ccccc1)OC", "note": "[Compound 11, crocacin D, reference compound]", "values": [{"measurement": "inhibition of the electron transport chain at complex III", "setting": "[3]", "value": "inhibited the electron transport chain at complex III"}, {"measurement": "T50 glass slides", "setting": "[4]", "value": 0.6, "unit": "h"}, {"measurement": "time for 50% of parent compound being lost", "setting": "[4]", "value": 37, "unit": "min"}, {"measurement": "activity in the NADH oxidase / beef heart mitochondrial respiration assay", "setting": "[1]", "value": "slightly more active than crocacin A"}, {"measurement": "inhibition of growth of fungi in vitro", "setting": "[5]", "value": "inhibited the growth of several fungi in vitro"}]}
{"smiles": "CCCCCCCCCCCCC(=O)N/C=C\\CCCC(=O)NCC(=O)OC", "note": "[Compound 12]", "values": [{"measurement": "photostability", "setting": "[4]", "value": "photostability was unexpectedly reduced"}, {"measurement": "T50 glass slides", "setting": "[4]", "value": 0.1, "unit": "h"}, {"measurement": "activity in the NADH oxidase / beef heart mitochondrial respiration assay", "setting": "[1]", "value": "very active"}, {"measurement": "fungicidal activity on plants", "setting": "[2]", "value": "no fungicidal activity"}]}
{"smiles": "CCCCCCOc1ccc(C(=O)N/C=C\\CCCC(=O)NCC(=O)OC)cc1", "note": "[Compound 13]", "values": [{"measurement": "T50 glass slides", "setting": "[4]", "value": 5, "unit": "h"}, {"measurement": "activity in the NADH oxidase / beef heart mitochondrial respiration assay", "setting": "[1]", "value": "very good activity"}, {"measurement": "fungicidal activity on plants", "setting": "[2]", "value": "inactive as fungicides"}]}
{"smiles": "COC(=O)CNC(=O)CCC/C=C\\NC(=O)c1ccc(Cc2ccc(Br)cc2)cc1", "note": "[Compound 14]", "values": [{"measurement": "photostability", "setting": "[4]", "value": "greater photostability than the natural product"}, {"measurement": "T50 glass slides", "setting": "[4]", "value": 12, "unit": "h"}]}
{"smiles": "CCOc1ccc(Cc2ccc(C(=O)N/C=C\\CCCC(=O)NCC(=O)OC)cc2)cc1", "note": "[Compound 15]", "values": [{"measurement": "photostability", "setting": "[4]", "value": "greater photostability than the natural product"}, {"measurement": "T50 glass slides", "setting": "[4]", "value": 20, "unit": "h"}]}
{"smiles": "CCc1ccc(Cc2ccc(Cn3c(=O)oc4ccc(OCC(=O)OC)cc43)cc2)cc1", "note": "[Compound 18]", "values": [{"measurement": "activity on vine downy mildew on plants", "setting": "[6]", "value": "no activity"}]}
{"smiles": "COC(=O)COc1ccc2oc(=O)n(Cc3ccc(Cc4ccc(I)cc4)cc3)c2c1", "note": "[Compound 19]", "values": [{"measurement": "activity on vine downy mildew on plants", "setting": "[6]", "value": "no activity"}]}
{"smiles": "CCc1ccc(Cc2ccc(Cn3c(=O)oc4ccc(NCC(=O)OC)cc43)cc2)cc1", "note": "[Compound 21]", "values": [{"measurement": "IC50, NADH oxidase", "setting": "[1]", "value": "Inactive"}]}
{"smiles": "CCc1ccc(Oc2ccc(C(=O)N[C@H]3C[C@H]3CCC(=O)NCC(=O)OC)cc2)cc1", "note": "[Compound 24]", "values": [{"measurement": "activity in the NADH oxidase / beef heart mitochondrial respiration assay", "setting": "[1]", "value": "only very weakly active"}]}
{"smiles": "COC(=O)CNC(=O)CCCc1ccccc1NC(=O)CCCCCCCCCc1ccccc1", "note": "[Compound 25]", "values": [{"measurement": "activity in the NADH oxidase / beef heart mitochondrial respiration assay", "setting": "[1]", "value": "completely inactive"}, {"measurement": "IC50, NADH oxidase", "setting": "[1]", "value": "Inactive"}]}
